Assay results published in patent US9518018B2, “3-alkoxy, thioalkyl and amino-4-amino-6-(substituted)picolinates and their use as herbicides” (Dow AgroSciences LLC, priority 2011, dated 2016).

System: desired test plant species
Assay: Foliar-applied postemergence herbicidal activity in direct seeded rice (Table 6)
Format: in vivo
Conditions: 21 DAA
Source text: Seeds or nutlets of the desired test plant species were planted in a soil matrix prepared by mixing a loam soil (43 percent silt, 19 percent clay, and 38 percent sand, with a pH of about 8.1 and an organic matter content of about 1.5 percent) and river sand in an 80 to 20 ratio. The soil matrix was contained in plastic pots with a surface area of 139.7 cm^2. When required to ensure good germination and healthy plants, a fungicide treatment and/or other chemical or physical treatment was applied. The plants were grown for 10-17 d in a greenhouse with an approximate 14-h photoperiod which was maintained at about 29° C. during the day and 26° C. during the night. Nutrients and water were added on a regular basis and supplemental lighting was provided with overhead metal halide 1000-Watt lamps as necessary. The plants were employed for testing when they reached the second or third true leaf stage. Treatments consisted of compounds 45, 34, and 66. Weighed amounts of technical compounds were placed in individual 25 mL glass vials and dissolved in 8 mL of 97:3 v/v acetone-DMSO to obtain stock solutions. […] The spray application solutions were prepared by removing 4 mL of the stock solution and diluting with 4 mL of 97:3 v/v acetone-DMSO and continued serial dilution to obtain 1⁄2×, 1⁄4×, 1⁄8×, and 1/16× rates of the high rate. Spray solutions were diluted to the appropriate final concentrations with the addition of 8 mL of an aqueous mixture of 1.875% (v/v) Agri-dex crop oil concentrate. The final 12-mL spray solutions each contained 1.25% (v/v) Agri-dex crop oil concentrate, 32.3% acetone, and 1.0% DMSO. Compound requirements are based upon a 12 mL application volume at a rate of 187 L/ha. Spray solutions were applied to the plant material with an overhead Mandel track sprayer equipped with […] nozzles calibrated to deliver 187 L/ha over an application area of 0.503 square meters (m^2) at a spray height of 18 inches ([…]) above average plant canopy height. Control plants were sprayed in the same manner with the solvent blank. The treated plants and control plants were placed in a greenhouse as described above and watered by sub-irrigation to prevent wash-off of the test compounds. After approximately 3 weeks, the condition of the test plants, compared with that of the untreated plants, was determined visually and scored on a scale of 0 to 100 percent where 0 corresponds to no injury and 100 corresponds to complete kill. By applying the well-accepted probit analysis as described by J. Berkson in Journal of the […], 48, 565 (1953) and by D. Finney in “Probit Analysis” Cambridge University Press (1952) or by plotting the mean data and fitting a logarithmic curve to the portion of the data where there was a dose response using Microsoft Excel®, the above data can be used to calculate GR50 and GR90 values, which are defined as growth reduction factors that correspond to the effective dose of herbicide required to kill or control 50 percent or 90 percent, respectively, of a target plant.

SMILES: COc1c(C(=O)O)nc(-c2ccc(Cl)c(OC)c2F)c(F)c1N [Compound 45, 4-amino-6-(4-chloro-2-fluoro-3-methoxyphenyl)-5-fluoro-3-methoxypicolinic acid]
- Mean Visual Injury (%)-21 Days After Application AESSE (AESSE (Aeschynomene sensitiva, sensitive jointvetch), 4.38 g ae/ha): 100%
- Mean Visual Injury (%)-21 Days After Application AESSE (AESSE (Aeschynomene sensitiva, sensitive jointvetch), 8.75 g ae/ha): 100%
- Mean Visual Injury (%)-21 Days After Application AESSE (AESSE (Aeschynomene sensitiva, sensitive jointvetch), 17.5 g ae/ha): 100%
- Mean Visual Injury (%)-21 Days After Application AESSE (AESSE (Aeschynomene sensitiva, sensitive jointvetch), 35 g ae/ha): 100%
- Mean Visual Injury (%)-21 Days After Application AESSE (AESSE (Aeschynomene sensitiva, sensitive jointvetch), 70 g ae/ha): 100%
- GR50 AESSE (AESSE (Aeschynomene sensitiva, sensitive jointvetch), dose to kill or control 50 percent): <4.38 g ae/ha
- GR90 AESSE (AESSE (Aeschynomene sensitiva, sensitive jointvetch), dose to kill or control 90 percent): <4.38 g ae/ha
- Mean Visual Injury (%)-21 Days After Application BRAPP (BRAPP (Brachiaria platyphylla, broadleaf signalgrass), 4.38 g ae/ha): 72%
- Mean Visual Injury (%)-21 Days After Application BRAPP (BRAPP (Brachiaria platyphylla, broadleaf signalgrass), 8.75 g ae/ha): 80%
- Mean Visual Injury (%)-21 Days After Application BRAPP (BRAPP (Brachiaria platyphylla, broadleaf signalgrass), 17.5 g ae/ha): 95%
- Mean Visual Injury (%)-21 Days After Application BRAPP (BRAPP (Brachiaria platyphylla, broadleaf signalgrass), 35 g ae/ha): 95%
- Mean Visual Injury (%)-21 Days After Application BRAPP (BRAPP (Brachiaria platyphylla, broadleaf signalgrass), 70 g ae/ha): 98%
- GR50 BRAPP (BRAPP (Brachiaria platyphylla, broadleaf signalgrass), dose to kill or control 50 percent): <4.38 g ae/ha
- GR90 BRAPP (BRAPP (Brachiaria platyphylla, broadleaf signalgrass), dose to kill or control 90 percent): 22.0 g ae/ha
- Mean Visual Injury (%)-21 Days After Application CYPDI (CYPDI (Cyperus difformis, small-flower flatsedge), 4.38 g ae/ha): 75%
- Mean Visual Injury (%)-21 Days After Application CYPDI (CYPDI (Cyperus difformis, small-flower flatsedge), 8.75 g ae/ha): 97%
- Mean Visual Injury (%)-21 Days After Application CYPDI (CYPDI (Cyperus difformis, small-flower flatsedge), 17.5 g ae/ha): 98%
- Mean Visual Injury (%)-21 Days After Application CYPDI (CYPDI (Cyperus difformis, small-flower flatsedge), 35 g ae/ha): 100%
- Mean Visual Injury (%)-21 Days After Application CYPDI (CYPDI (Cyperus difformis, small-flower flatsedge), 70 g ae/ha): 100%
- GR50 CYPDI (CYPDI (Cyperus difformis, small-flower flatsedge), dose to kill or control 50 percent): <4.38 g ae/ha
- GR90 CYPDI (CYPDI (Cyperus difformis, small-flower flatsedge), dose to kill or control 90 percent): 8.8 g ae/ha
- Mean Visual Injury (%)-21 Days After Application CYPES (CYPES (Cyperus esculentus, yellow nutsedge), 4.38 g ae/ha): 73%
- Mean Visual Injury (%)-21 Days After Application CYPES (CYPES (Cyperus esculentus, yellow nutsedge), 8.75 g ae/ha): 78%
- Mean Visual Injury (%)-21 Days After Application CYPES (CYPES (Cyperus esculentus, yellow nutsedge), 17.5 g ae/ha): 85%
- Mean Visual Injury (%)-21 Days After Application CYPES (CYPES (Cyperus esculentus, yellow nutsedge), 35 g ae/ha): 99%
- Mean Visual Injury (%)-21 Days After Application CYPES (CYPES (Cyperus esculentus, yellow nutsedge), 70 g ae/ha): 95%
- GR50 CYPES (CYPES (Cyperus esculentus, yellow nutsedge), dose to kill or control 50 percent): <4.38 g ae/ha
- GR90 CYPES (CYPES (Cyperus esculentus, yellow nutsedge), dose to kill or control 90 percent): 27.1 g ae/ha
- Mean Visual Injury (%)-21 Days After Application CYPIR (CYPIR (Cyperus iria, rice flatsedge), 4.38 g ae/ha): 95%
- Mean Visual Injury (%)-21 Days After Application CYPIR (CYPIR (Cyperus iria, rice flatsedge), 8.75 g ae/ha): 97%
- Mean Visual Injury (%)-21 Days After Application CYPIR (CYPIR (Cyperus iria, rice flatsedge), 17.5 g ae/ha): 100%
- Mean Visual Injury (%)-21 Days After Application CYPIR (CYPIR (Cyperus iria, rice flatsedge), 35 g ae/ha): 100%
- Mean Visual Injury (%)-21 Days After Application CYPIR (CYPIR (Cyperus iria, rice flatsedge), 70 g ae/ha): 100%
- GR50 CYPIR (CYPIR (Cyperus iria, rice flatsedge), dose to kill or control 50 percent): <4.38 g ae/ha
- GR90 CYPIR (CYPIR (Cyperus iria, rice flatsedge), dose to kill or control 90 percent): <4.38 g ae/ha
- Mean Visual Injury (%)-21 Days After Application ECHCG (ECHCG (Echinochloa crus-galli, barnyardgrass), 4.38 g ae/ha): 92%
- Mean Visual Injury (%)-21 Days After Application ECHCG (ECHCG (Echinochloa crus-galli, barnyardgrass), 8.75 g ae/ha): 92%
- Mean Visual Injury (%)-21 Days After Application ECHCG (ECHCG (Echinochloa crus-galli, barnyardgrass), 17.5 g ae/ha): 95%
- Mean Visual Injury (%)-21 Days After Application ECHCG (ECHCG (Echinochloa crus-galli, barnyardgrass), 35 g ae/ha): 98%
- Mean Visual Injury (%)-21 Days After Application ECHCG (ECHCG (Echinochloa crus-galli, barnyardgrass), 70 g ae/ha): 100%
- GR50 ECHCG (ECHCG (Echinochloa crus-galli, barnyardgrass), dose to kill or control 50 percent): <4.38 g ae/ha
- GR90 ECHCG (ECHCG (Echinochloa crus-galli, barnyardgrass), dose to kill or control 90 percent): <4.38 g ae/ha
- Mean Visual Injury (%)-21 Days After Application ECHCO (ECHCO (Echinochloa colonum, junglerice), 4.38 g ae/ha): 80%
- Mean Visual Injury (%)-21 Days After Application ECHCO (ECHCO (Echinochloa colonum, junglerice), 8.75 g ae/ha): 88%
- Mean Visual Injury (%)-21 Days After Application ECHCO (ECHCO (Echinochloa colonum, junglerice), 17.5 g ae/ha): 95%
- Mean Visual Injury (%)-21 Days After Application ECHCO (ECHCO (Echinochloa colonum, junglerice), 35 g ae/ha): 98%
- Mean Visual Injury (%)-21 Days After Application ECHCO (ECHCO (Echinochloa colonum, junglerice), 70 g ae/ha): 100%
- GR50 ECHCO (ECHCO (Echinochloa colonum, junglerice), dose to kill or control 50 percent): <4.38 g ae/ha
- GR90 ECHCO (ECHCO (Echinochloa colonum, junglerice), dose to kill or control 90 percent): 12.9 g ae/ha
- Mean Visual Injury (%)-21 Days After Application LEFCH (LEFCH (Leptochloa chinensis, Chinese sprangletop), 4.38 g ae/ha): 3%
- Mean Visual Injury (%)-21 Days After Application LEFCH (LEFCH (Leptochloa chinensis, Chinese sprangletop), 8.75 g ae/ha): 0%
- Mean Visual Injury (%)-21 Days After Application LEFCH (LEFCH (Leptochloa chinensis, Chinese sprangletop), 17.5 g ae/ha): 20%
- Mean Visual Injury (%)-21 Days After Application LEFCH (LEFCH (Leptochloa chinensis, Chinese sprangletop), 35 g ae/ha): 42%
- Mean Visual Injury (%)-21 Days After Application LEFCH (LEFCH (Leptochloa chinensis, Chinese sprangletop), 70 g ae/ha): 60%
- GR50 LEFCH (LEFCH (Leptochloa chinensis, Chinese sprangletop), dose to kill or control 50 percent): 53.5 g ae/ha
- GR90 LEFCH (LEFCH (Leptochloa chinensis, Chinese sprangletop), dose to kill or control 90 percent): >70 g ae/ha
- Mean Visual Injury (%)-21 Days After Application ORYSA ‘Clearfield 171’ (ORYSA (Oryza sativa ‘Clearfield 171’, rice), 4.38 g ae/ha): 0%
- Mean Visual Injury (%)-21 Days After Application ORYSA ‘Clearfield 171’ (ORYSA (Oryza sativa ‘Clearfield 171’, rice), 8.75 g ae/ha): 12%
- Mean Visual Injury (%)-21 Days After Application ORYSA ‘Clearfield 171’ (ORYSA (Oryza sativa ‘Clearfield 171’, rice), 17.5 g ae/ha): 15%
- Mean Visual Injury (%)-21 Days After Application ORYSA ‘Clearfield 171’ (ORYSA (Oryza sativa ‘Clearfield 171’, rice), 35 g ae/ha): 35%
- Mean Visual Injury (%)-21 Days After Application ORYSA ‘Clearfield 171’ (ORYSA (Oryza sativa ‘Clearfield 171’, rice), 70 g ae/ha): 47%
- GR50 ORYSA ‘Clearfield 171’ (ORYSA (Oryza sativa ‘Clearfield 171’, rice), dose to kill or control 50 percent): >70 g ae/ha
- GR90 ORYSA ‘Clearfield 171’ (ORYSA (Oryza sativa ‘Clearfield 171’, rice), dose to kill or control 90 percent): >70 g ae/ha
- Mean Visual Injury (%)-21 Days After Application ORYSA ‘Wells’ (ORYSA (Oryza sativa ‘Wells’, rice), 4.38 g ae/ha): 0%
- Mean Visual Injury (%)-21 Days After Application ORYSA ‘Wells’ (ORYSA (Oryza sativa ‘Wells’, rice), 8.75 g ae/ha): 0%
- Mean Visual Injury (%)-21 Days After Application ORYSA ‘Wells’ (ORYSA (Oryza sativa ‘Wells’, rice), 17.5 g ae/ha): 0%
- Mean Visual Injury (%)-21 Days After Application ORYSA ‘Wells’ (ORYSA (Oryza sativa ‘Wells’, rice), 35 g ae/ha): 10%
- Mean Visual Injury (%)-21 Days After Application ORYSA ‘Wells’ (ORYSA (Oryza sativa ‘Wells’, rice), 70 g ae/ha): 23%
- GR50 ORYSA ‘Wells’ (ORYSA (Oryza sativa ‘Wells’, rice), dose to kill or control 50 percent): >70 g ae/ha
- GR90 ORYSA ‘Wells’ (ORYSA (Oryza sativa ‘Wells’, rice), dose to kill or control 90 percent): >70 g ae/ha
- Mean Visual Injury (%)-21 Days After Application SCPJU (SCPJU (Scirpus juncoides, Japanese bulrush), 4.38 g ae/ha): 72%
- Mean Visual Injury (%)-21 Days After Application SCPJU (SCPJU (Scirpus juncoides, Japanese bulrush), 8.75 g ae/ha): 100%
- Mean Visual Injury (%)-21 Days After Application SCPJU (SCPJU (Scirpus juncoides, Japanese bulrush), 17.5 g ae/ha): 100%
- Mean Visual Injury (%)-21 Days After Application SCPJU (SCPJU (Scirpus juncoides, Japanese bulrush), 35 g ae/ha): 100%
- Mean Visual Injury (%)-21 Days After Application SCPJU (SCPJU (Scirpus juncoides, Japanese bulrush), 70 g ae/ha): 100%
- GR50 SCPJU (SCPJU (Scirpus juncoides, Japanese bulrush), dose to kill or control 50 percent): <4.38 g ae/ha
- GR90 SCPJU (SCPJU (Scirpus juncoides, Japanese bulrush), dose to kill or control 90 percent): 6.9 g ae/ha
- Mean Visual Injury (%)-21 Days After Application SEBEX (SEBEX (Sesbania exaltata, hemp sesbania), 4.38 g ae/ha): 100%
- Mean Visual Injury (%)-21 Days After Application SEBEX (SEBEX (Sesbania exaltata, hemp sesbania), 8.75 g ae/ha): 100%
- Mean Visual Injury (%)-21 Days After Application SEBEX (SEBEX (Sesbania exaltata, hemp sesbania), 17.5 g ae/ha): 100%
- Mean Visual Injury (%)-21 Days After Application SEBEX (SEBEX (Sesbania exaltata, hemp sesbania), 35 g ae/ha): 100%
- Mean Visual Injury (%)-21 Days After Application SEBEX (SEBEX (Sesbania exaltata, hemp sesbania), 70 g ae/ha): 100%
- GR50 SEBEX (SEBEX (Sesbania exaltata, hemp sesbania), dose to kill or control 50 percent): <4.38 g ae/ha
- GR90 SEBEX (SEBEX (Sesbania exaltata, hemp sesbania), dose to kill or control 90 percent): <4.38 g ae/ha
